From PubChem BioAssay (NCI)
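1) Cells in 96-well plates. 2) Compound, 48 h, 5 concentrations. 3) Linear interpolation between surrounding doses. 4) Unreached endpoint = highest concentration. At the TGI there is no net growth.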

Assays:
Assay in all cases: inhibition of tumour cell growth, NCI panel, 48 h
MDA-MB-435 = test system: MDA-MB-435
RPMI-8226 leukemia = test system: RPMI-8226 leukemia
HCT-15 colon = test system: HCT-15 colon
RXF 393 renal = test system: RXF 393 renal
NCI-H522 lung = test system: NCI-H522 lung
OVCAR-4 ovarian = test system: OVCAR-4 ovarian
ACHN renal = test system: ACHN renal
UO-31 renal = test system: UO-31 renal
SW-620 colon = test system: SW-620 colon
A549 NSCLC = test system: A549 NSCLC
HS 578T breast = test system: HS 578T breast
NCI/ADR-RES ovarian = test system: NCI/ADR-RES ovarian
NCI-H460 lung = test system: NCI-H460 lung
IGROV1 ovarian = test system: IGROV1 ovarian
KM12 colon = test system: KM12 colon
HOP-92 NSCLC = test system: HOP-92 NSCLC
A498 renal = test system: A498 renal
MOLT-4 leukemia = test system: MOLT-4 leukemia
EKVX NSCLC = test system: EKVX NSCLC
LOX IMVI melanoma = test system: LOX IMVI melanoma

Measured: TGI

CCC12CC(c3ccccc3)C(C(=O)N1)C(=O)N2 (configuration not stated)
> 100 µM: MDA-MB-435 | RPMI-8226 leukemia | HCT-15 colon | RXF 393 renal | NCI-H522 lung | OVCAR-4 ovarian | ACHN renal | UO-31 renal | SW-620 colon | A549 NSCLC | HS 578T breast | NCI/ADR-RES ovarian | NCI-H460 lung | IGROV1 ovarian | KM12 colon | HOP-92 NSCLC | A498 renal | MOLT-4 leukemia | EKVX NSCLC

Cc1c(NC(=O)c2cc([N+](=O)[O-])cc([N+](=O)[O-])c2)c(=O)n(-c2ccccc2)n1C
> 100 µM: MDA-MB-435 | RPMI-8226 leukemia | HCT-15 colon | RXF 393 renal | LOX IMVI melanoma | OVCAR-4 ovarian | UO-31 renal | SW-620 colon | A549 NSCLC | HS 578T breast | NCI/ADR-RES ovarian | NCI-H460 lung | IGROV1 ovarian | KM12 colon | HOP-92 NSCLC | A498 renal | MOLT-4 leukemia

CCCNC(=O)Cn1c(C)cc2ccccc21
> 100 µM: MDA-MB-435 | RPMI-8226 leukemia | HCT-15 colon | RXF 393 renal | NCI-H522 lung | LOX IMVI melanoma | OVCAR-4 ovarian | ACHN renal | UO-31 renal | SW-620 colon | A549 NSCLC | HS 578T breast | NCI/ADR-RES ovarian | IGROV1 ovarian | KM12 colon | HOP-92 NSCLC | MOLT-4 leukemia | EKVX NSCLC

CNC(=O)C1CCCN1C(=O)C(Cc1cnc[nH]1)NC(=O)C1CCC(=O)N1 (configuration not stated)
> 100 µM: MDA-MB-435 | RPMI-8226 leukemia | HCT-15 colon | RXF 393 renal | NCI-H522 lung | LOX IMVI melanoma | OVCAR-4 ovarian | ACHN renal | UO-31 renal | SW-620 colon | A549 NSCLC | HS 578T breast | NCI/ADR-RES ovarian | NCI-H460 lung | IGROV1 ovarian | KM12 colon | HOP-92 NSCLC | MOLT-4 leukemia | EKVX NSCLC

CS/C(=N\S(=O)(=O)c1cc(C)c(Cl)cc1Cl)NNc1cnc2ccccc2n1
> 100 µM: MDA-MB-435 | HCT-15 colon | RXF 393 renal | NCI-H522 lung | LOX IMVI melanoma | OVCAR-4 ovarian | ACHN renal | UO-31 renal | SW-620 colon | A549 NSCLC | HS 578T breast | NCI/ADR-RES ovarian | NCI-H460 lung | IGROV1 ovarian | KM12 colon | HOP-92 NSCLC | A498 renal | MOLT-4 leukemia | EKVX NSCLC

N#Cc1c(-c2cccc(Cl)c2)cc(-c2ccc(Cl)cc2)nc1N
32.3 µM: RXF 393 renal
30.8 µM: NCI-H522 lung
37.6 µM: MDA-MB-435
27.5 µM: UO-31 renal
33.1 µM: OVCAR-4 ovarian
40.5 µM: HS 578T breast
41.6 µM: ACHN renal
34.2 µM: SW-620 colon
48 µM: RPMI-8226 leukemia
63.5 µM: NCI/ADR-RES ovarian
31.5 µM: LOX IMVI melanoma
24.4 µM: IGROV1 ovarian
45 µM: EKVX NSCLC
58.6 µM: MOLT-4 leukemia
32.9 µM: HCT-15 colon
80.7 µM: KM12 colon
39.2 µM: NCI-H460 lung
36.1 µM: A549 NSCLC
25.3 µM: HOP-92 NSCLC

COc1cc([C@H]2CC(=O)C[C@@H](c3cc(OC)c(OC)c(OC)c3)C23C(=O)c2ccccc2C3=O)cc(OC)c1OC
> 100 µM: MDA-MB-435 | RPMI-8226 leukemia | HCT-15 colon | RXF 393 renal | NCI-H522 lung | LOX IMVI melanoma | OVCAR-4 ovarian | ACHN renal | UO-31 renal | SW-620 colon | A549 NSCLC | HS 578T breast | NCI/ADR-RES ovarian | NCI-H460 lung | IGROV1 ovarian | KM12 colon | HOP-92 NSCLC | MOLT-4 leukemia | EKVX NSCLC

COC(=O)C(Cc1c(C2Nc3ccccc3C2CC(NC(C)=O)C(=O)OC)[nH]c2ccccc12)NC(C)=O (configuration not stated)
> 100 µM: MDA-MB-435 | RPMI-8226 leukemia | HCT-15 colon | RXF 393 renal | NCI-H522 lung | LOX IMVI melanoma | ACHN renal | UO-31 renal | SW-620 colon | A549 NSCLC | HS 578T breast | NCI/ADR-RES ovarian | NCI-H460 lung | IGROV1 ovarian | KM12 colon | HOP-92 NSCLC | A498 renal | MOLT-4 leukemia | EKVX NSCLC

COC(=O)c1cnn2c1ccc1ccccc12
> 100 µM: MDA-MB-435 | RPMI-8226 leukemia | HCT-15 colon | RXF 393 renal | NCI-H522 lung | LOX IMVI melanoma | ACHN renal | UO-31 renal | SW-620 colon | A549 NSCLC | HS 578T breast | NCI/ADR-RES ovarian | NCI-H460 lung | IGROV1 ovarian | KM12 colon | HOP-92 NSCLC | A498 renal | MOLT-4 leukemia | EKVX NSCLC

OCCCc1cc(O)c2c(c1)C(CO)C(c1ccc(O)c(O)c1)O2 (configuration not stated)
> 100 µM: MDA-MB-435 | HCT-15 colon | NCI-H522 lung | LOX IMVI melanoma | ACHN renal | UO-31 renal | SW-620 colon | A549 NSCLC | HS 578T breast | NCI/ADR-RES ovarian | NCI-H460 lung | IGROV1 ovarian | KM12 colon | HOP-92 NSCLC | A498 renal | MOLT-4 leukemia | EKVX NSCLC

C=C1CC2CC(=O)C(O)C(C1)C2 (configuration not stated)
> 100 µM: MDA-MB-435 | RPMI-8226 leukemia | HCT-15 colon | RXF 393 renal | NCI-H522 lung | LOX IMVI melanoma | ACHN renal | UO-31 renal | SW-620 colon | A549 NSCLC | HS 578T breast | NCI/ADR-RES ovarian | NCI-H460 lung | KM12 colon | HOP-92 NSCLC | A498 renal | MOLT-4 leukemia | EKVX NSCLC

O=C1/C(=C/c2ccc(Cl)cc2)N=C(c2ccccc2)N1c1nc2c(Cl)cc(Cl)cc2s1
68.9 µM: EKVX NSCLC
86.2 µM: MDA-MB-435
50.2 µM: A498 renal
81.3 µM: NCI/ADR-RES ovarian
62 µM: RXF 393 renal
> 100 µM: RPMI-8226 leukemia | HCT-15 colon | OVCAR-4 ovarian | ACHN renal | SW-620 colon | NCI-H460 lung | IGROV1 ovarian | KM12 colon
71.6 µM: HOP-92 NSCLC
53.4 µM: LOX IMVI melanoma
90.1 µM: HS 578T breast
79.8 µM: UO-31 renal
68.7 µM: A549 NSCLC
24.7 µM: MOLT-4 leukemia
